As usually defined, the melting point is the temperature, or range, at which the solid turns liquid.

Consider 37 compounds from patent US8802678B2, “Carbonylated (aza) cyclohexanes as dopamine D3 receptor ligands” (Bioprojet, priority 2006, dated 2014).

For `CCCc1cccc(N2CCN(CC[C@H]3CC[C@H](NC(=O)CC#N)CC3)CC2)c1` [Example 271, 2-Cyano-N-(4-{2-[4-(3-propylphenyl)piperazin-1-yl]ethyl}cyclohexyl)acetamide], the melting point is 132 °C. For `N#CCC(=O)N[C@H]1CC[C@H](CCN2CCN(c3ccc(Cl)c(Cl)c3)CC2)CC1` [Example 272, 2-Cyano-N-(4-{2-[4-(3,4-dichlorophenyl)piperazin-1-yl]ethyl}cyclohexyl)acetamide] the value was 216 °C; for `N#CCC(=O)N[C@H]1CC[C@H](CCN2CCN(c3ccc(C(F)(F)F)cc3)CC2)CC1` [Example 274, 2-Cyano-N-(4-{2-[4-(4-trifluoromethylphenyl)piperazin-1-yl]ethyl}cyclohexyl)acetamide], 240 °C; for `N#CCC(=O)N[C@H]1CC[C@H](CCN2CCN(c3ccc(Cl)cc3)CC2)CC1` [Example 275, N-(4-{2-[4-(4-Chlorophenyl)piperazin-1-yl]ethyl}cyclohexyl)-2-cyanoacetamide], 247 °C. To `N#CCC(=O)N[C@H]1CC[C@H](CCN2CCN(c3cccc(-c4ccccc4)c3)CC2)CC1` [Example 276, N-{4-[2-(4-Biphenyl-3-yl-piperazin-1-yl)ethyl]cyclohexyl}-2-cyanoacetamide] belongs 157 °C; to `N#CCC(=O)N[C@H]1CC[C@H](CCN2CCN(c3ccc(F)c(C(F)(F)F)c3)CC2)CC1` [Example 277, 2-Cyano-N-(4-{2-[4-(4-fluoro-3-trifluoromethylphenyl)piperazin-1-yl]ethyl}cyclohexyl)acetamide], 181 °C.

Turning to `Cc1ccc(F)cc1N1CCN(CC[C@H]2CC[C@H](NC(=O)CCC#N)CC2)CC1` [Example 278, 3-Cyano-N-(4-{2-[4-(5-fluoro-2-methylphenyl)piperazin-1-yl]ethyl}cyclohexyl)propanamide], the melting point came to 146 °C. To `N#CCC(=O)N[C@H]1CC[C@H](CCN2CCN(c3cccc(Br)c3)CC2)CC1` [Example 280, N-(4-{2-[4-(3-Bromophenyl)piperazin-1-yl]ethyl}cyclohexyl)-2-cyanoacetamide] belongs 168 °C; to `CC(F)(F)c1cccc(N2CCN(CC[C@H]3CC[C@H](NC(=O)CC#N)CC3)CC2)c1` [Example 281, 2-Cyano-N-[4-(2-{4-[3-(1,1-difluoroethyl)phenyl]piperazin-1-yl}ethyl)cyclohexyl]acetamide trans/cis 90/10], 150 °C; to `CC(C)(C#N)C(=O)N[C@H]1CC[C@H](CCN2CCN(c3cccc(C(F)(F)F)c3)CC2)CC1` [Example 282, 2-Cyano-2,2-dimethyl-N-(4-{2-[4-(3-trifluoromethylphenyl)-piperazin-1-yl]ethyl}cyclohexyl)-acetamide], 150 °C.

Consider `N#CCCCC(=O)N[C@H]1CC[C@H](CCN2CCN(c3ccc(F)cc3)CC2)CC1` [Example 283, 4-Cyano-N-(4-{2-[4-(4-fluorophenyl)piperazin-1-yl]ethyl}cyclohexyl)butanamide], for which the melting point came out at 154 °C.

`O=C(CC(F)(F)F)N[C@H]1CC[C@H](CCN2CCN(c3ccc(F)cc3)CC2)CC1` [Example 284, 3,3,3-Trifluoro-N-(4-{2-[4-(4-fluorophenyl)piperazin-1-yl]ethyl}cyclohexyl)propanamide] showed a melting point of 200 °C. In turn, `CCc1ccc(N2CCN(CC[C@H]3CC[C@H](NC(=O)CC#N)CC3)CC2)cc1` [Example 285, 2-Cyano-N-(4-{2-[4-(4-ethylphenyl)piperazin-1-yl]ethyl}cyclohexyl)acetamide] displayed a melting point of 210 °C.

`CCc1ccccc1N1CCN(CC[C@H]2CC[C@H](NC(=O)CCCC#N)CC2)CC1` [Example 286, 4-Cyano-N-(4-{2-[4-(2-ethylphenyl)piperazin-1-yl]ethyl}cyclohexyl)butanamide]: the melting point is 124 °C. For `O=C(C[C@H]1CC[C@H](CCN2CCN(c3cccc(C(F)(F)F)c3)CC2)CC1)N1CCCC1` [Example 294, 1-Pyrrolidin-1-yl-2-(4-{2-[4-(3-trifluoromethylphenyl)piperazin-10yl]ethyl}cyclohexyl)ethanone] the value was 131 °C. To `CNC(=O)C=C1CCC(CCN2CCN(c3ccccc3F)CC2)CC1` (stereo not shown) [Example 299, 2-(4-{2-[4-(2-Fluorophenyl)piperazin-1-yl]ethyl}cyclohexylidene)-N-methylacetamide] belongs 135 °C; to `CNC(=O)C[C@H]1CC[C@H](CCN2CCN(c3ccccc3F)CC2)CC1` [Example 300, 2-(4-{2-[4-(2-Fluorophenyl)-piperazin-1-yl]ethyl}cyclohexyl)-N-methylacetamide], 165 to 166 °C; to `O=C(C=C1CCC(CCN2CCN(c3ccccc3F)CC2)CC1)N1CCCC1` (stereo not shown) [Example 301, 2-(4-{2-[4-(2-Fluorophenyl)-piperazin-1-yl]ethyl}cyclohexylidene)-1-pyrrolidin-1-ylethanone], 109 to 110 °C. For `O=C(C[C@H]1CC[C@H](CCN2CCN(c3ccccc3F)CC2)CC1)N1CCCC1` [Example 302, 2-(4-{2-[4-(2-Fluorophenyl)-piperazin-1-yl]ethyl}cyclohexyl)-1-pyrrolidin-1-ylethanone] the value was 92 to 93 °C; for `O=C(C=C1CCC(CCN2CCN(c3ccccc3F)CC2)CC1)NCC(F)(F)F` (stereo not shown) [Example 303, 2-(4-{2-[4-(2-Fluorophenyl)-piperazin-1-yl]ethyl}cyclo-hexylidene)-N-(2,2,2-trifluoroethyl)acetamide], 125 °C. For `O=C(C[C@H]1CC[C@H](CCN2CCN(c3ccccc3F)CC2)CC1)NCC(F)(F)F` [Example 304, 2-(4-{2-[4-(2-Fluorophenyl)piperazin-1-yl]ethyl}cyclohexyl)-N-(2,2,2-trifluoroethyl)acetamide], the melting point lay in the range of 158 to 159 °C. Take `CCCNC(=O)C[C@H]1CC[C@H](CCN2CCN(c3ccccc3F)CC2)CC1` [Example 306, 2-(4-{2-[4-(2-Fluorophenyl)-piperazin-1-yl]ethyl}cyclohexyl)-N-propylacetamide]: the melting point came to 150 °C. To `CC(=O)CN1CCC(CCN2CCN(c3ccc(C)cc3)CC2)CC1` [Example 310, 1-{4-[2-(4-p-Tolylpiperazin-1-yl)ethyl]piperidin-1-yl}propan-2-one] belongs 92 °C; to `CC(=O)CN1CCC(CCN2CCN(c3cc(Cl)cc(Cl)c3)CC2)CC1` [Example 311, 1-(4-{2-[4-(3,5-Dichlorophenyl)-piperazin-1-yl]ethyl}piperidin-1-yl)propan-2-one], 126 °C; to `CCCc1cccc(N2CCN(CC[C@H]3CC[C@H](NC(=O)CCCC#N)CC3)CC2)c1` [Example 312, 4-Cyano-N-(4-{2-[4-(3-propylphenyl)piperazin-1-yl]ethyl}cyclohexyl)butanamide], 142 °C. To `Cc1c(F)cccc1N1CCN(CC[C@H]2CC[C@H](NC(=O)CC#N)CC2)CC1` [Example 313, 2-Cyano-N-(4-{2-[4-(3-fluoro-2-methylphenyl)piperazin-1-yl]ethyl}cyclohexyl)acetamide] belongs 174 °C; to `CC(F)(F)c1cccc(N2CCN(CC[C@H]3CC[C@H](NC(=O)CCCC#N)CC3)CC2)c1` [Example 314, 4-Cyano-N-[4-(2-{4-[3-(1,1-difluoroethyl)phenyl]piperazin-1-yl}ethyl)cyclohexyl]butanamide], 179 °C. To `N#CCC(=O)N[C@H]1CC[C@H](CCN2CCN(c3ccc4c(c3)OCO4)CC2)CC1` [Example 315, N-{4-[2-(4-Benzo[1,3]dioxol-5-ylpiperazin-1-yl)ethyl]cyclohexyl}-2-cyanoacetamide] belongs 226 °C; to `N#CCC(=O)N[C@H]1CC[C@H](CCN2CCN(c3ccc4c(c3)OCCO4)CC2)CC1` [Example 316, 2-Cyano-N-(4-{2-[4-(2,3-dihydrobenzo[1,4]dioxin-6-yl)piperazin-1-yl]ethyl}cyclohexyl)acetamide], 208 °C; to `O=C(CC(F)(F)F)N[C@H]1CC[C@H](CCN2CCN(c3cccc4ncccc34)CC2)CC1` [Example 320, 3,3,3-Trifluoro-N-{4-[2-(4-quinolin-5-ylpiperazin-1-yl)ethyl]cyclohexyl}propanami-de], 207 °C.

As to `N#CCCCC(=O)N[C@H]1CC[C@H](CCN2CCN(c3cccc4ncccc34)CC2)CC1` [Example 321, 4-Cyano-N-{4-[2-(4-quinolin-5-ylpiperazin-1-yl)ethyl]cyclohexyl}butanamide], the melting point was 155 °C.

As to `Cc1cc(N2CCN(CC[C@H]3CC[C@H](NC(=O)CC#N)CC3)CC2)ccc1F` [Example 322, 2-Cyano-N-(4-{2-[4-(4-fluoro-3-methylphenyl)piperazin-1-yl]ethyl}cyclohexyl)acetamide], the melting point is 192 °C. To `N#CCC(=O)N[C@H]1CC[C@H](CCN2CCN(c3ccc(F)c(F)c3)CC2)CC1` [Example 325, 2-Cyano-N-(4-{2-[4-(3,4-difluorophenyl)piperazin-1-yl]ethyl}cyclohexyl)acetamide] belongs 197 °C; to `CCc1cccc(N2CCN(CC[C@H]3CC[C@@H](NC(=O)CC#N)CC3)CC2)c1` [Example 328, 2-Cyano-N-(4-{2-[4-(3-ethylphenyl)piperazin-1-yl]ethyl}cyclohexyl)acetamide], 101 °C. `C[S+]([O-])CC(=O)N[C@H]1CC[C@H](CCN2CCN(c3cccc(C(F)(F)F)c3)CC2)CC1` (stereo partly shown) [Example 334, 2-Methanesulfinyl-N-(4-{2-[4-(3-trifluoromethylphenyl)piperazin-1-yl]ethyl}cyclohexyl)acetamide]: the melting point stood at 153 °C. `CC(C)c1cccc(N2CCN(CC[C@H]3CC[C@H](NC(=O)CC#N)CC3)CC2)c1` [Example 335, 2-Cyano-N-(4-{2-[4-(3-isopropylphenyl)piperazin-1-yl]ethyl}cyclohexyl)acetamide] came in with a melting point of 153 °C. To `Cc1cc(C)cc(N2CCN(CC[C@H]3CC[C@@H](NC(=O)CC#N)CC3)CC2)c1` [Example 336, 2-Cyano-N-(4-{2-[4-(3,5-dimethylphenyl)piperazin-1-yl]ethyl}cyclohexyl)acetamide] belongs 119 °C.
